Data: US11306079B2, “3-(5-amino-pyrazin-2-yl)-benzenesulfonamide derivatives and related compounds as PI3K-gamma kinase inhibitors” (Incyte Corporation, priority 2017, dated 2022)
Counter-ions that a name gives are not always drawn.

Key:
[1] = biological target: PI3Kδ (p110δ/p85α) Recombinant Human Protein (Homo sapiens (Human), UniProt O00329); experiment: PI3Kδ Scintillation Proximity Assay; type: biochemical; conditions: 20 μM PIP2, 2 μM ATP, 3.4 nM PI3Kδ, 120 min, room temperature
Source text: Example C. PI3Kδ Scintillation Proximity Assay
(§1) [γ-^33P]ATP (10 mCi/mL) and Wheat Germ Agglutinin (WGA) YSi SPA Scintillation Beads was purchased from Perkin-Elmer (Waltham, Mass.). Lipid kinase substrate, D-myo-Phosphatidylinositol 4,5-bisphosphate (PtdIns(4,5)P2)D (+)-sn-1,2-di-O-octanoylglyceryl, 3-O-phospho linked (PIP2), CAS 204858-53-7, was purchased from Echelon Biosciences (Salt Lake City, Utah). PI3Kδ (p110δ/p85α) Recombinant Human Protein was purchased from Eurofins (St Charles, Mo.). ATP, MgCl2, DTT, EDTA, MOPS and CHAPS were purchased from Sigma-Aldrich (St. Louis, Mo.).
(§2) The kinase reaction was conducted in polystyrene 384-well Greiner Bio-one white plate from Thermo Fisher Scientific in a final volume of 25 μL. Inhibitors were first diluted serially in DMSO and added to the plate wells before the addition of other reaction components. The final concentration of DMSO in the assay was 2%. The PI3Kδ assay was carried out at room temperature in 20 mM MOPS, pH 6.7, 10 mM MgCl2, 5 mM DTT and CHAPS 0.03%. Reactions were initiated by the addition of ATP, the final reaction mixture consisted of 20 μM PIP2, 2 μM ATP, 0.5 μCi [γ-^33P] ATP, 3.4 nM PI3Kδ. Reactions were incubated for 120 min and terminated by the addition of 40 μL SPA beads suspended in quench buffer: 163 mM potassium phosphate pH 7.8, 20% glycerol, 25 mM EDTA. The final concentration of SPA beads is 1.0 mg/mL. After the plate sealing, plates were shaken overnight at room temperature and centrifuged at 1500 rpm for 10 min, the radioactivity of the product was determined by scintillation counting on Topcount (Perkin-Elmer). IC50 determination was performed by fitting the curve of percent of the solvent control activity versus the log of the inhibitor concentration using the GraphPad Prism 6.0 software.

[2] = biological target: PI3Kγ (p110γ) Recombinant Human Protein (Homo sapiens (Human), UniProt P48736); experiment: PI3K-γ Scintillation Proximity Assay; type: biochemical; conditions: 20 μM PIP2, 2 μM ATP, 13 nM PI3Kγ, 120 min, room temperature
Chain of PI3Kγ (p110γ) Recombinant Human Protein (P48736 whole entry): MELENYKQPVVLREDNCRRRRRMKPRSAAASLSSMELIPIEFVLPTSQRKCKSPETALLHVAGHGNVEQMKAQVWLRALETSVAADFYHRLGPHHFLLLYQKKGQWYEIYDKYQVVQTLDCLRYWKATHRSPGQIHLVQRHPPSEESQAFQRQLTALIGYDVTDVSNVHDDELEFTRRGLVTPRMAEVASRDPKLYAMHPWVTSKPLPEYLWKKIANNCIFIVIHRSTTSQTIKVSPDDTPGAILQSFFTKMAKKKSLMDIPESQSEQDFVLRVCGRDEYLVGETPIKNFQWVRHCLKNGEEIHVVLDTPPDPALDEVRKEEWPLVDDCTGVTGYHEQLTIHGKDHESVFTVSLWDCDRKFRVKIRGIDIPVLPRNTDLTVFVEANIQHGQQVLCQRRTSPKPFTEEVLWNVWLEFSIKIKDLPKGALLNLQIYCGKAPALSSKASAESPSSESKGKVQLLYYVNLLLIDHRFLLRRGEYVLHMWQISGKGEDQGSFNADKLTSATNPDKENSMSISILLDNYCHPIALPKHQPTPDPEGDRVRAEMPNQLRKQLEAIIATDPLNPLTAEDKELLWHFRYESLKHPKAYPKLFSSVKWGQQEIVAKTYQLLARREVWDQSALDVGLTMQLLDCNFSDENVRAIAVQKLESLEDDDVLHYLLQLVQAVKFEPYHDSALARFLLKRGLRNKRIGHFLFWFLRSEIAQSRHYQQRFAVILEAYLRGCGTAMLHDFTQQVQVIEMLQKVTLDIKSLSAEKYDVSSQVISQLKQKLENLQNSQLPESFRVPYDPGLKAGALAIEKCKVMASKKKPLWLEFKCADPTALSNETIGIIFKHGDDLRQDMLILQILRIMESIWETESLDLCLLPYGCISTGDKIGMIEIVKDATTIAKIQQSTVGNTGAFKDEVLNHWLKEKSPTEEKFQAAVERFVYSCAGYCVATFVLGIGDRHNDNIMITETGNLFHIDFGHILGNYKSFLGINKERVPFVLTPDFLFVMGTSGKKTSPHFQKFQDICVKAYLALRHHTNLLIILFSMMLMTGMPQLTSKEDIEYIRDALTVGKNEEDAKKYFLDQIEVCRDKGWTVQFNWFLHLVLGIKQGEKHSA
Source text: Example B. PI3K-γ Scintillation Proximity Assay
as §1, with “PI3Kγ (p110γ)” for “PI3Kδ (p110δ/p85α)”, “Life technology (Grand island, NY),” for “Eurofins (St Charles, Mo.).”
as §2, with “PI3Kγ” for “PI3Kδ”, “13” for “3.4”, “PI3Kγ.” for “PI3Kδ.”

[3] = tested on: Phosphorylated Ribosomal Protein S6 (RPS6) in THP-1 cells; experiment: THP-1 RPS6 ELISA Assay; type: cell-based; conditions: Homo sapiens; serum starved THP-1 cells, 2 hours with compound, 10 nM MCP-1 for 15 minutes, Phospho-RPS6 ELISA; read-out: PI3Kγ_THP1_RPS6_ELISA IC50
Procedure: Example A. THP-1 RPS6 ELISA Assay
To measure the Phosphorylated Ribosomal Protein S6 (RPS6) in cell lysates, THP-1 cells (Human Acute Monocytic Leukemia) are purchased from ATCC (Manassas, Va.) and maintained in RPMI with 10% FBS (Gibco/Life Technologies, Carlsbad, Calif.). For the assay, THP-1 cells are serum starved overnight in RPMI, then plated in RPMI (2×10^5 cells/well in 90 μL) into 96-well flat-bottom tissue culture treated plates (Corning, Corning, N.Y.), in the presence or absence of a concentration range of test compounds. Covered plates are incubated for 2 hours at 37° C., 5% CO2 then treated with or without 10 nM MCP-1 (MYBioSource, San Diego, Calif.) for 15 minutes at 37° C., 5% CO2. Plates are centrifuged at 1600 RPM and supernatants are removed. Cells are lysed in Lysis Buffer (Cell Signaling, Danvers, Mass.) with Protease Inhibitor (Calbiochem/EMD, Germany), PMSF (Sigma, St Louis Mo.), HALTS (Thermo Fisher, Rockford, Ill.) for 30 min on wet ice. Cell lysates are frozen at −80° C. before testing. The lysates are tested in the Human/Mouse/Rat Phospho-RPS6 ELISA (R&D Systems, Inc. Minn, Minn.). The plate is measured using a microplate reader (SpectraMax M5—Molecular Devices, LLC Sunnyvale, Calif.) set to 450 nm with a wavelength correction of 540. IC50 determination is performed by fitting the curve of inhibitor percent inhibition versus the log of the inhibitor concentration using the GraphPad Prism 5.0 software.

Chain of PI3Kδ (p110δ/p85α) Recombinant Human Protein (O00329 whole entry): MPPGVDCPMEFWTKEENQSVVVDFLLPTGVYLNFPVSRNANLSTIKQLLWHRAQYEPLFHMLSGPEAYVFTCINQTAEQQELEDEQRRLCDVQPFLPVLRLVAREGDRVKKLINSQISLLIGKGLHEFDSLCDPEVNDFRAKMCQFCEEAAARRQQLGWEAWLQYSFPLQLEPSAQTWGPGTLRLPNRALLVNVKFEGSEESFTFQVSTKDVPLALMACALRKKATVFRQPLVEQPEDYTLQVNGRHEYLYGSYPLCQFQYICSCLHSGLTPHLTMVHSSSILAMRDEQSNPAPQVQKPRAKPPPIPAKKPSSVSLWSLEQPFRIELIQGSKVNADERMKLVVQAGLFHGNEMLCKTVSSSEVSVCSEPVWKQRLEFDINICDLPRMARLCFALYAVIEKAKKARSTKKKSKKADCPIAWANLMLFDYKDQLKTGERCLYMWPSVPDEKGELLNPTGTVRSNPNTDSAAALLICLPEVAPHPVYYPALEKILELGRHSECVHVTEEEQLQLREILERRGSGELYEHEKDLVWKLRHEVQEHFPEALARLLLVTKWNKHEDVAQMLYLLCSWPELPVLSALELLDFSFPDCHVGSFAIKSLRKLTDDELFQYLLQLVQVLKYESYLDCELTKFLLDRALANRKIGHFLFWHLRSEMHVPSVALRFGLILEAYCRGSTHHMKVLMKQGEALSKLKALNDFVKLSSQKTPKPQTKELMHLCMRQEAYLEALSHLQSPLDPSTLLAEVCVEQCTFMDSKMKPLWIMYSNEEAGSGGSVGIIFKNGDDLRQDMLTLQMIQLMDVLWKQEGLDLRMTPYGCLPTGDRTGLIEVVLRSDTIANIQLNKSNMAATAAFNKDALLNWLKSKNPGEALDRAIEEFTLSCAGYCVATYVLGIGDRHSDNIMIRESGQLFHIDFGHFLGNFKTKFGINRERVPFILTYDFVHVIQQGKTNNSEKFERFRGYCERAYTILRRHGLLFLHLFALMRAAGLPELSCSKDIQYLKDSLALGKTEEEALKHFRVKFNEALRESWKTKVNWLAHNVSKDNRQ
Chain of PI3Kδ (p110δ/p85α) Recombinant Human Protein (P27986 whole entry partner): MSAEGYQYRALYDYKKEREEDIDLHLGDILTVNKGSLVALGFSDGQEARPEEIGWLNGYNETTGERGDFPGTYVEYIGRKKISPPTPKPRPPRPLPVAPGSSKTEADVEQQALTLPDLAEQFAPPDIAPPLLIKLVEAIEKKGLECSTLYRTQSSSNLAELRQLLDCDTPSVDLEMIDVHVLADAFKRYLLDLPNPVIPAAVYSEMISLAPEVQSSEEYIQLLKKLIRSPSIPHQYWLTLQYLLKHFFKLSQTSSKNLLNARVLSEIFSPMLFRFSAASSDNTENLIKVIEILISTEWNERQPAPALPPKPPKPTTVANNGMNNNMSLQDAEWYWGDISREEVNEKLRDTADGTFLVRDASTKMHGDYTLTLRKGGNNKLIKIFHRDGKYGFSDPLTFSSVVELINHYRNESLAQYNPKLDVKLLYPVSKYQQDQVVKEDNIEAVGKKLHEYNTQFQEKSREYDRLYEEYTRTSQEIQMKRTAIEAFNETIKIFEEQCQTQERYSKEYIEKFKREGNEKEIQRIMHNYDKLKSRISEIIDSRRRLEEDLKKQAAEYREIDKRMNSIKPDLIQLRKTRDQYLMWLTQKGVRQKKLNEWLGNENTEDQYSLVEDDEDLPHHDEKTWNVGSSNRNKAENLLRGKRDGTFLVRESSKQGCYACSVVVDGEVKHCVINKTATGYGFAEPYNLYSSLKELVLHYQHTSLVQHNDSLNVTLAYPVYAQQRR

Structure (SMILES)	IC50 [1] [µM]	IC50 [2] [µM]	IC50 [3] [µM]
Cc1ccc(S(=O)(=O)NC23CC(C(C)(C)O)(C2)C3)cc1-c1cnc(N)c(-n2cncn2)n1 [Example 29, 3-(5-Amino-6-(1H-1,2,4-triazol-1-yl)pyrazin-2-yl)-N-(3-(2-hydroxypropan-2-yl)bicyclo[1.1.1]pentan-1-yl)-4-methylbenzenesulfonamide trifluoroacetate salt]	≤ 0.5	≤ 0.1	≤ 0.5
[2H]C([2H])([2H])c1ccc(S(=O)(=O)NC23CCN(CC2)C3)cc1-c1cnc(N)c(-c2ncn(C([2H])([2H])[2H])n2)n1 [Example 92, 3-(5-amino-6-(1-(methyl-d3)-1H-1,2,4-triazol-3-yl)pyrazin-2-yl)-N-(1-azabicyclo[2.2.1]heptan-4-yl)-4-(methyl-d3)benzenesulfonamide]	≤ 0.1	≤ 0.1	≤ 0.5
[2H]C([2H])([2H])c1ccc(S(=O)(=O)NC23CC(C#N)(C2)C3)cc1-c1cnc(N)c(-n2nccn2)n1 [Example 50, 3-(5-Amino-6-(2H-1,2,3-triazol-2-yl)pyrazin-2-yl)-N-(3-cyanobicyclo[1.1.1]pentan-1-yl)-4-(methyl-d3)benzenesulfonamide Trifluoroacetate Salt]	≤ 0.1	≤ 0.1	≤ 0.5
[2H]C([2H])([2H])c1ccc(S(=O)(=O)NC23CC(CO)(C2)C3)cc1-c1cnc(N)c(-c2ccnc(SC)n2)n1 [Example 78, 3-(5-Amino-6-(2-(methylthio)pyrimidin-4-yl)pyrazin-2-yl)-N-(3-(hydroxymethyl)bicyclo[1.1.1]pentan-1-yl)-4-(methyl-d3)benzenesulfonamide]	≤ 0.1	≤ 0.1	≤ 0.1
Cc1ccc(S(=O)(=O)NC23CCC(C#N)(C2)C3)cc1-c1cnc(N)c(-n2ccnn2)n1 [Example 44, 3-(5-Amino-6-(1H-1,2,3-triazol-1-yl)pyrazin-2-yl)-N-(4-cyanobicyclo[2.1.1]hexan-1-yl)-4-methylbenzenesulfonamide Trifluoroacetate Salt]	≤ 0.1	≤ 0.1	≤ 0.1
Cc1ccc(S(=O)(=O)NC23CCC(CO)(CC2)OC3)cc1-c1cnc(N)c(-c2ccncc2F)n1 [Example 20, 3-(5-Amino-6-(3-fluoropyridin-4-yl)pyrazin-2-yl)-N-(1-(hydroxymethyl)-2-oxabicyclo[2.2.2]octan-4-yl)-4-methylbenzenesulfonamide trifluoroacetate salt]	≤ 0.5	≤ 0.1	≤ 0.5
Cc1ccc(S(=O)(=O)NC23CCC(C#N)(C2)C3)cc1-c1cnc(N)c(-n2cccn2)n1 [Example 62, 3-(5-Amino-6-(1H-pyrazol-1-yl)pyrazin-2-yl)-N-(4-cyanobicyclo[2.1.1]hexan-1-yl)-4-methylbenzenesulfonamide Trifluoroacetate Salt]	≤ 0.1	≤ 0.1	≤ 0.1
Cc1ccc(S(=O)(=O)NC23CCC(C#N)(C2)C3)cc1-c1cnc(N)c(-c2cn(C)nc2C)n1 [Example 11, 3-(5-Amino-6-(1,3-dimethyl-1H-pyrazol-4-yl)pyrazin-2-yl)-N-(4-cyanobicyclo[2.1.1]hexan-1-yl)-4-methylbenzensulfonamide trifluoroacetate salt]	≤ 0.5	≤ 0.1	≤ 0.5
Cc1ccc(S(=O)(=O)NC23CNC(C2)C3)cc1-c1cnc(N)c(-c2ncn(C)n2)n1 [Example 57, 3-(5-Amino-6-(1-methyl-1H-1,2,4-triazol-3-yl)pyrazin-2-yl)-N-(2-azabicyclo[2.1.1]hexan-4-yl)-4-methylbenzenesulfonamide trifluoroacetate salt]	≤ 0.1	≤ 0.1	≤ 0.5
[2H]C([2H])([2H])c1ccc(S(=O)(=O)NC23CCC(C#N)(C2)C3)cc1-c1cnc(N)c(-c2cnc(C)s2)n1 [Example 65, 3-(5-Amino-6-(2-methylthiazol-5-yl)pyrazin-2-yl)-N-(4-cyanobicyclo[2.1.1]hexan-1-yl)-4-(methyl-d3)benzenesulfonamide trifluoroacetate salt]	≤ 0.1	≤ 0.1	≤ 0.1
Cc1cc(-c2nc(-c3cc(S(=O)(=O)NC45CCC(CO)(CC4)OC5)ccc3C)cnc2N)ccn1 [Example 18, 3-(5-Amino-6-(2-methylpyridin-4-yl)pyrazin-2-yl)-N-(1-(hydroxymethyl)-2-oxabicyclo[2.2.2]octan-4-yl)-4-methylbenzenesulfonamide Trifluoroacetate Salt]	≤ 0.5	≤ 0.1	≤ 0.5
[2H]C([2H])([2H])c1ccc(S(=O)(=O)NC23CCC(C#N)(C2)C3)cc1-c1cnc(N)c(-c2ccn(C)n2)n1 [Example 63, 3-(5-Amino-6-(1-methyl-1H-pyrazol-3-yl)pyrazin-2-yl)-N-(4-cyanobicyclo[2.1.1]hexan-1-yl)-4-(methyl-d3)benzenesulfonamide Trifluoroacetate Salt]	≤ 0.1	≤ 0.1	≤ 0.1
Cc1ccc(S(=O)(=O)NC23COC(CO)(C2)C3)cc1-c1cnc(N)c(-c2cn(C)nc2C)n1 [Example 14, 3-(5-Amino-6-(1,3-dimethyl-1H-pyrazol-4-yl)pyrazin-2-yl)-N-(1-(hydroxymethyl)-2-oxabicyclo[2.1.1]hexan-4-yl)-4-methylbenzenesulfonamide trifluoroacetate salt]	≤ 0.5	≤ 0.1	≤ 0.5
Cc1ncc(-c2cc(-c3cc(S(=O)(=O)NC45COC(CO)(C4)C5)ccc3C)cnc2N)s1 [Example 86, 3-(6-amino-5-(2-methylthiazol-5-yl)pyridin-3-yl)-N-(1-(hydroxymethyl)-2-oxabicyclo[2.1.1]hexan-4-yl)-4-methylbenzenesulfonamide]	≤ 0.5	≤ 0.1	≤ 0.5
